Values joined by “and” are separate entries in the source; they are usually repeats but may differ in a detail not shown here. Equal entries are not always repeated. Toxic doses and inconclusive results are not listed. How the source made its calls: active means survival T/C of 150% or more; inactive means T/C below 125% in these data.
Tested on: P388 leukemia ip, CD2F1 mice, survival T/C
Experiment: NCI In Vivo Anticancer Drug Screen. Data for tumor model P388 Leukemia (intraperitoneal) in CD2F1 (CDF1) mice
Settings: endpoint: median survival time, higher = longer survival
Method in brief: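 Mice carrying the transplanted tumor received test compound or vehicle. Survival was recorded in each group, and the value is the treated-group measurement divided by that of the vehicle-treated control group.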

[1] = dose: 50.0 mg/kg/injection, schedule: Q01DX009 (ip), vehicle: Klucel (hydroxypropylcellulose) (HPC)
[2] = dose: 25.0 mg/kg/injection, schedule: Q01DX009 (ip), vehicle: saline with Tween-80
[3] = dose: 50.0 mg/kg/injection, schedule: Q01DX009 (ip), vehicle: saline with Tween-80
[4] = dose: 100.0 mg/kg/injection, schedule: Q01DX009 (ip), vehicle: saline with Tween-80
[5] = dose: 60.0 mg/kg/injection, schedule: Q01DX005 (ip), vehicle: saline with Tween-80
[6] = dose: 120.0 mg/kg/injection, schedule: Q01DX005 (ip), vehicle: saline with Tween-80
[7] = dose: 240.0 mg/kg/injection, schedule: Q01DX005 (ip), vehicle: saline with Tween-80
[8] = dose: 100.0 mg/kg/injection, schedule: Q01DX001 (ip), vehicle: saline with Tween-80
[9] = dose: 50.0 mg/kg/injection, schedule: Q01DX005 (ip), vehicle: Klucel (hydroxypropylcellulose) (HPC)
[10] = dose: 100.0 mg/kg/injection, schedule: Q01DX005 (ip), vehicle: Klucel (hydroxypropylcellulose) (HPC)
[11] = dose: 200.0 mg/kg/injection, schedule: Q01DX005 (ip), vehicle: Klucel (hydroxypropylcellulose) (HPC)

Measured: T/C

CCCCCCCCCC1(CC(=O)OCC)SCCN1C(N)=O (configuration not stated)
inactive: [1] 113 % of control | dose: 100.0 mg/kg/injection, schedule: Q01DX009 (ip), vehicle: Klucel (hydroxypropylcellulose) (HPC) 107 % of control | dose: 200.0 mg/kg/injection, schedule: Q01DX009 (ip), vehicle: Klucel (hydroxypropylcellulose) (HPC) 115 % of control

Cc1ccc(SC2=C(Sc3ccc(C)cc3)C(=O)c3ccccc3C2=O)cc1
inactive: [2] 102 % of control and 88 % of control | [3] 116 % of control and 96 % of control | [4] 99 % of control and 123 % of control

COc1cc2c(cc1CCCc1cc(OC)c(OC)c(OC)c1)OCO2
inactive: [5] 92 % of control | [6] 89 % of control | [7] 86 % of control

C=CCCCCCCCCCC(=O)C=C
inactive: dose: 2.75 mg/kg/injection, schedule: Q01DX005 (ip), vehicle: Klucel (hydroxypropylcellulose) (HPC) 98 % of control | dose: 5.5 mg/kg/injection, schedule: Q01DX005 (ip), vehicle: Klucel (hydroxypropylcellulose) (HPC) 99 % of control | dose: 11.0 mg/kg/injection, schedule: Q01DX005 (ip), vehicle: Klucel (hydroxypropylcellulose) (HPC) 92 % of control | dose: 22.0 mg/kg/injection, schedule: Q01DX005 (ip), vehicle: Klucel (hydroxypropylcellulose) (HPC) 92 % of control | dose: 44.0 mg/kg/injection, schedule: Q01DX005 (ip), vehicle: Klucel (hydroxypropylcellulose) (HPC) 91 % of control

CC(/C=N\Nc1ccc(Cl)cc1)=N/NC(=S)NCC(C)C
inactive: [8] 103 % of control | dose: 200.0 mg/kg/injection, schedule: Q01DX001 (ip), vehicle: saline with Tween-80 100 % of control | dose: 400.0 mg/kg/injection, schedule: Q01DX001 (ip), vehicle: saline with Tween-80 94 % of control

C#CCSc1n[nH]c(-c2ccco2)n1
inactive: [5] 101 % of control | [6] 105 % of control | [7] 105 % of control

O=C(Nc1ccccc1F)OCCCl
inactive: [5] 99 % of control | [6] 101 % of control | [7] 93 % of control

BrCCC[n+]1ccc2ccccc2c1-c1nccc2ccccc12
inactive: dose: 3.12 mg/kg/injection, schedule: Q01DX001 (ip), vehicle: saline 104 % of control | dose: 6.25 mg/kg/injection, schedule: Q01DX001 (ip), vehicle: saline 98 % of control | dose: 12.5 mg/kg/injection, schedule: Q01DX001 (ip), vehicle: saline 101 % of control and 115 % of control

Nc1cc(=O)[nH]c(=S)n1-c1ccccn1
inactive: dose: 75.0 mg/kg/injection, schedule: Q01DX001 (ip), vehicle: saline with Tween-80 104 % of control | dose: 150.0 mg/kg/injection, schedule: Q01DX001 (ip), vehicle: saline with Tween-80 100 % of control | dose: 300.0 mg/kg/injection, schedule: Q01DX001 (ip), vehicle: saline with Tween-80 104 % of control

Cc1cc2cc3c(c(C(=O)O)c2o1)C(=O)c1ccccc1C3
inactive: [5] 107 % of control | [6] 111 % of control | [7] 94 % of control

CC1(C)S[C@@H]2[C@H](NC(=O)C3(N)CCCCC3)C(=O)N2[C@H]1C(=O)O
inactive: [9] 103 % of control | [10] 103 % of control | [11] 102 % of control

O=C(O)CCC(=O)NCCNC(=O)CCC(=O)O
inactive: dose: 50.0 mg/kg/injection, schedule: Q01DX009 (ip), vehicle: saline 101 % of control | dose: 100.0 mg/kg/injection, schedule: Q01DX009 (ip), vehicle: saline 101 % of control | dose: 200.0 mg/kg/injection, schedule: Q01DX009 (ip), vehicle: saline 104 % of control

O=C(N/N=C/c1ccccc1Cl)c1cccnc1
inactive: [5] 90 % of control | [6] 93 % of control | [7] 89 % of control

CC1=C2CC(=O)OC(c3ccoc3)C2(C)CCC1C1(CC(=O)O)C2COC(=O)CC2OC1(C)C (configuration not stated)
inactive: dose: 0.75 mg/kg/injection, schedule: Q01DX009 (ip), vehicle: saline + alcohol 99 % of control | dose: 1.5 mg/kg/injection, schedule: Q01DX009 (ip), vehicle: saline + alcohol 97 % of control | dose: 3.0 mg/kg/injection, schedule: Q01DX009 (ip), vehicle: saline + alcohol 106 % of control | dose: 6.0 mg/kg/injection, schedule: Q01DX009 (ip), vehicle: saline + alcohol 101 % of control

Fc1ccc(NC(=S)SCc2ccc3c(c2)OCO3)cc1
inactive: dose: 50.0 mg/kg/injection, schedule: Q01DX009 (ip), vehicle: suspension in saline 101 % of control | dose: 100.0 mg/kg/injection, schedule: Q01DX009 (ip), vehicle: suspension in saline 101 % of control | dose: 200.0 mg/kg/injection, schedule: Q01DX009 (ip), vehicle: suspension in saline 116 % of control

COc1cccc2c1CCC(=O)C2C (configuration not stated)
inactive: [9] 107 % of control | [10] 100 % of control | [11] 104 % of control

COc1ccc(OC(C)C(=O)O)cc1 (configuration not stated)
inactive: [9] 101 % of control | [10] 98 % of control | [11] 95 % of control

CCO/C=C\Br
inactive: [5] 105 % of control | [6] 99 % of control | [7] 100 % of control

COc1ccc2c(c1)C1CN(Cc3ccccc31)C2 (configuration not stated)
inactive: [8] 99 % of control

BrCC1C[n+]2c(cc(-c3ccccc3)cc2-c2ccccc2)S1 (configuration not stated)
inactive: dose: 3.75 mg/kg/injection, schedule: Q01DX005 (ip), vehicle: Klucel (hydroxypropylcellulose) (HPC) 100 % of control | dose: 7.5 mg/kg/injection, schedule: Q01DX005 (ip), vehicle: Klucel (hydroxypropylcellulose) (HPC) 99 % of control

O=C(O)C(CCCCNC(=S)S)NC(=S)S.[Na+].[Zn+2] (configuration not stated)
inactive: [9] 95 % of control | [10] 95 % of control | [11] 102 % of control

Cc1ccc(NC(=O)Oc2c(C)cc(Cl)cc2C)c([N+](=O)[O-])c1
inactive: [3] 95 % of control | dose: 200.0 mg/kg/injection, schedule: Q01DX009 (ip), vehicle: saline with Tween-80 95 % of control

O=C1c2ccccc2C(=O)N1C[P+](c1ccccc1)(c1ccccc1)c1ccccc1
inactive: dose: 0.78 mg/kg/injection, schedule: Q01DX009 (ip), vehicle: water 102 % of control | dose: 1.56 mg/kg/injection, schedule: Q01DX009 (ip), vehicle: water 106 % of control | dose: 3.13 mg/kg/injection, schedule: Q01DX009 (ip), vehicle: water 106 % of control | dose: 5.56 mg/kg/injection, schedule: Q01DX009 (ip), vehicle: water 123 % of control | dose: 25.0 mg/kg/injection, schedule: Q01DX009 (ip), vehicle: water 98 % of control

CCCCCn1c(Cl)c(C=O)c2ccccc21
inactive: dose: 100.0 mg/kg/injection, schedule: Q04DX002 (ip), vehicle: Klucel (hydroxypropylcellulose) (HPC) 97 % of control | dose: 200.0 mg/kg/injection, schedule: Q04DX002 (ip), vehicle: Klucel (hydroxypropylcellulose) (HPC) 98 % of control | dose: 400.0 mg/kg/injection, schedule: Q04DX002 (ip), vehicle: Klucel (hydroxypropylcellulose) (HPC) 100 % of control

CCC1(C)c2cc(C)c(C(C)=O)cc2C(C)(C)C1C (configuration not stated)
inactive: [2] 100 % of control | [3] 101 % of control | [4] 100 % of control

CN(C)c1nc(N(C)C)n2nc(-c3ccccc3[N+](=O)[O-])nc2n1
inactive: dose: 100.0 mg/kg/injection, schedule: Q04DX003 (ip), vehicle: saline with Tween-80 104 % of control | dose: 200.0 mg/kg/injection, schedule: Q04DX003 (ip), vehicle: saline with Tween-80 96 % of control | dose: 400.0 mg/kg/injection, schedule: Q04DX003 (ip), vehicle: saline with Tween-80 95 % of control

CCN(CC)Cc1c(C)nc2ccc(N(C)C)cc2c1Cl
inactive: dose: 12.5 mg/kg/injection, schedule: Q01DX009 (ip), vehicle: Klucel (hydroxypropylcellulose) (HPC) 115 % of control | dose: 25.0 mg/kg/injection, schedule: Q01DX009 (ip), vehicle: Klucel (hydroxypropylcellulose) (HPC) 110 % of control | [1] 100 % of control and 96 % of control
